Results: USRE48887E1, “RNA interference compositions and methods for malignant tumors” (Nitto Denko Corporation, priority 2014, dated 2022)
d = 2'-deoxy (DNA); m = 2'-O-methyl; r = 2'-OH (RNA); f = 2'-fluoro

Tests used:
[1] = test system: A549 orthotopic lung cancer tumors; assay: Orthotopic A549 lung cancer mouse model; settings: 2 mg/kg
Procedure: The anti-tumor efficacy of the siRNA formulation against human lung cancer A549 was evaluated by comparing the final primary tumor weights measured at necropsy for the treatment group and the vehicle control group.
For this study, male NCr nu/nu mice, 5-6 weeks old, were used. The experimental animals were maintained in a HEPA filtered environment during the experimental period. The siRNA formulations were stored at 4° C. before use, and warmed to room temperature 10 minutes prior to injection in mouse.
For this A549 human lung cancer orthotopic model, on the day of surgical orthotopic implantation (SOI), the stock tumors were harvested from the subcutaneous site of animals bearing A549 tumor xenograft and placed in RPMI1640 medium. Necrotic tissues were removed and viable tissues were cut into 1.5-2 mm^3 pieces. The animals were anesthetized with isoflurane inhalation and the surgical area was sterilized with iodine and alcohol. A transverse incision approximately 1.5 cm long was made in the left chest wall of the mouse using a pair of surgical scissors. An intercostal incision was made between the third and the fourth rib and the left lung was exposed. One A549 tumor fragment was transplanted to the surface of the lung with an 8-0 surgical suture (nylon). The chest wall was closed with a 6-0 surgical suture (silk). The lung was re-inflated by intrathoracic puncture using a 3 cc syringe with a 25 G×1½ needle to draw out the remaining air in the chest cavity. The chest wall was closed with a 6-0 surgical silk suture.
Three days after tumor implantation, the model tumor-bearing mice were randomly divided into groups of ten mice per group. For the group of interest, treatment of the ten mice was initiated three days after tumor implantation.
For the group of interest, the formulation was (Ionizable lipid: cholesterol:DOPE:DOPC:DPPE-PEG-2K:DSPE-PEG-2K), a liposomal composition. The liposomes encapsulated the GST-π siRNA.
For the study endpoint, the experimental mice were sacrificed forty-two days after treatment initiation. […]

GST-π mRNA = assay: Knockdown of GST-π mRNA in A549 xenograft tumors in vivo; design: species or system mouse
[2] = test system: A549 cancer xenograft tumors; assay: A549 cancer xenograft model, tumor inhibition efficacy; format: in vivo, mouse; settings: 0.75 mg/kg IV, two injections (day 1 and 15)
Procedure: For the cancer xenograft model, an A549 cell line was obtained from ATCC. The cells were maintained in culture medium supplemented with 10% Fetal Bovine Serum and 100 U/ml penicillin and 100 μg/ml streptomycin. Cells were split 48 hrs before inoculation so that cells were in log phase growth when harvested. Cells were lightly trypsinized with trypsin-EDTA and harvested from tissue culture. The number of viable cells was counted and determined in a hemocytometer in the presence of trypan blue (only viable cells are counted). The cells were resuspended to a concentration of 5×10^7/ml in media without serum. […]
For tumor volume measurements and randomization, tumor size was measured to the nearest 0.1 mm. Tumor volumes were calculated using the formula: […]. […] Tumor volumes were monitored three times for week 1, twice for the rest of weeks, including the day of study termination. […]
For body weight, mice were weighed to the nearest 0.1 g. Body weights were monitored and recorded daily within 7 days post dosing for first dose. Body weights were monitored and recorded twice for weeks, for the rest of weeks, including the day of study termination.
For tumors collection, on 28 days post first dosing, tumor volume was measured, and tumor was dissected for weight measurement, and stored for PD biomarker study. Tumor weight was recorded. […]

PUMA = PUMA biomarker for apoptosis of cancer cells in vitro (qPCR); format: cell-based; settings: from 2-4 days after transfection; siRNA 10 nM
Procedure: The protocol for the PUMA biomarker was as follows. One day before transfection, cells were plated in a 96-well plate at 2×10^3 cells per well with 100 μl of DMEM (HyClone Cat. # SH30243.01) containing 10% FBS and cultured in a 37° C. incubator containing a humidified atmosphere of 5% CO2 in air. Next day, before transfection the medium was replaced with 90 μl of Opti-MEM I Reduced Serum Medium (Life Technologies Cat. #31985-070) containing 2% FBS. Then, 0.2 μl of Lipofectamine RNAiMAX (Life Technologies Cat. #13778-100) were mixed with 4.8 μl of Opti-MEM I for 5 minutes at room temperature. 1 μl of the siRNAs (stock conc. 1 μM) was mixed with 4 μl of Opti-MEM I and combined with the RNAiMAX solution and then mixed gently. The mixture was incubated for 10 minutes at room temperature to allow the RNA-RNAiMAX complexes to form. 10 μl of RNA-RNAiMAX complexes were added per well, to final concentration of the siRNA 10 nM. The cells were incubated for 2 hours and medium changed to fresh Opti-MEM I Reduced Serum Medium containing 2% FBS. […] PUMA (BBC3, Cat# Hs00248075, Life Technologies) mRNA levels were measured by qPCR with TAQMAN.
The protocol for the PUMA biomarker was as follows. […] PUMA (BBC3, Cat#Hs00248075, Life Technologies) mRNA levels were measured by qPCR with TAQMAN.

SEQ ID NOs:61 and 126: GST-π siRNA; sense GAAGCCUUUUGAGACCCUAtt; antisense UAGGGUCUCAAAAGGCUUCag (sense GAAGCCUUUUGAGACCCUATT; antisense UAGGGUCUCAAAAGGCUUCAG; chemistry not given here)
final tumor average weights reduced as compared to control ([1]; after 43 days, liposomal formulation, athymic nude mice): 2.8 fold
mean body weight of the mice ([1]; entire experimental period): maintained within the normal range
other symptoms of toxicity ([1]; entire experimental period): not observed
reduction of GST-π mRNA (GST-π mRNA; 4 mg/kg, single injection, 24 hours after injection): about 40%
GST-π mRNA expression (GST-π mRNA; 4 days after injection in a lipid formulation): significant reduction

SEQ ID NOs:156 and 182: GST-π siRNA, Table 2; sense GAAGCCUUUUGAGACCCUAUU; antisense fUAGgGuCuCAAAAGGCUUCUU (antisense UAGGGUCUCAAAAGGCUUCUU; sense: sugars from the 5' end mmmrrrrmrmrrrrrrrmmmm, backbone not given here; antisense: sugars from the 5' end frrdrdrdmrmmrrrrmmrmm, backbone and T or U not given here)
tumor volume reduced as compared to control ([2]; after 36 days, liposomal formulation): 2 fold
tumor weight reduced ([2]; endpoint day): more than 2 fold
expression of PUMA (PUMA): greatly increased
